The values below come from PubChem BioAssay AID2423 (Broad Institute, 2010).

Records with an inconclusive call do not appear. Active and inactive are the calls of the source. The rule behind the calls is not given here.

The test system of this assay is C. albicans CaCi-8 + fluconazole, Alamar Blue growth, 48 h. The assay can be described thus: resistant C. albicans growth inhibition with fluconazole, dose response, CaCi-8 strain, Alamar Blue fluorescence (AID 2423). (Resazurin is reduced to fluorescent resorufin, in cell work by metabolically active cells.)
Turning to `O=[N+]([O-])CC(c1ccccc1)P(=O)(c1ccccc1)c1ccccc1` (stereo not drawn), the EC50 (commonly the concentration giving half of the maximal effect) was 1890 nM.
For `O=C(CCc1ccccc1)NNC(=S)NC(=O)c1ccc(Cl)cc1` the value was 1990 nM; for `Cc1ccc(O)c(N=Cc2cc(Cc3ccccc3)cc([N+](=O)[O-])c2O)c1`, 13700 nM.
With `N#Cc1c(Cl)nsc1NC(=O)c1ccccc1` the figure was > 16000 nM (inactive).
With `CCCC(=O)NC(c1ccccc1OC)c1ccc2cccnc2c1O` (stereo not drawn) the figure was 1040 nM; with `CN1CCN(C(c2ccc(C(F)(F)F)cc2)c2ccc3cccnc3c2O)CC1` (stereo not drawn), 883 nM; with `Cc1cccc(NC(=S)NNC(=O)c2csc(C(C)C)c2)c1`, 4240 nM.
On to `COc1cccc(/C=N/Nc2ccc([N+](=O)[O-])cn2)c1O`, for which the EC50 is 1500 nM.
As to `N#CC1CC(c2ccccc2)=NN1c1ccccc1[N+](=O)[O-]` (stereo not drawn), the EC50 is 404 nM.
For `CCOC(=O)c1ccccc1NC(=O)c1cccc([N+](=O)[O-])c1` the value was > 15000 nM (inactive); for `CN(C)c1ccc(/C=C/c2ccc3ccccc3[n+]2C)cc1`, 370 nM.
For `Cc1ccc(S(=O)(=O)CC2CSc3nc4ccccc4n32)cc1` (stereo not drawn) the value was 2520 nM.
For `Oc1[nH]c2ccc(Br)cc2c1N=NC(=S)N1CCOCC1` the value was 3100 nM; for `COc1ccc(O)c(/C=N/NC(=O)c2ccc(CSc3nc(C)cc(C)n3)cc2)c1`, 1760 nM; for `COc1ccccc1OCC(=O)N/N=C/C=C/c1ccc([N+](=O)[O-])o1`, 1220 nM.
With `NC(=O)c1ccc(Nc2nnc(-c3ccc(O)cc3)c3ccccc23)cc1`, the EC50 was 7930 nM.
For `O=C(/C=C1\NC2(CCCC2)Cc2ccccc21)C(=O)N/N=C/c1ccccc1O` the value was 601 nM; for `Cc1cc(NC(=O)c2c(F)cccc2Cl)n(-c2nc3ccccc3[nH]2)n1`, 7390 nM.
With `C/C(CC(C)(C)C1CCCCC1)=N\NC(N)=S` the figure was > 16000 nM (inactive).
With `O=c1c(Cl)c(NCCCO)cnn1-c1nc2ccccc2[nH]1` the figure was > 15000 nM (inactive); with `CCC(C)n1cnc2c(c1=O)c1nc3ccccc3nc1n2Cc1ccc(OC)cc1` (stereo not drawn), 615 nM.
As to `O=C1C=C(NCc2ccccc2)c2ccccc2C1=O`, the EC50 was 1860 nM.
For `CC(=O)N1CCOCCOCCN(C(C)=O)CCOCCOCC1` the value was > 15000 nM (inactive); for `Cc1noc(/C=C/c2ccccn2)c1[N+](=O)[O-]`, 1900 nM; for `CCCc1ccc(C2C3=C(CC(C)(C)CC3=O)NC3=C2C(=O)c2ccccc23)cc1` (stereo not drawn), 1780 nM.
For `Cc1cc(Oc2ccccc2)nc(-c2ccccc2O)n1` the value was > 15000 nM (inactive); for `C=C(C)CSc1[nH]c(=O)cc(C)c1C#N`, 1250 nM.
For the compound `Cn1c(=O)n(CC#N)c2ccccc21`, the EC50 is 14800 nM.
With `CCc1nn(CCCC(=O)NCc2ccc(C)cc2)c(=O)c2cc3occc3n12` the figure was > 16000 nM (inactive); with `CC(C)(C)c1ccc(CSc2cnn(C(C)(C)C)c(=O)c2Cl)cc1`, 324 nM; with `Cc1ccc(-n2ncc(Br)c(Br)c2=O)cc1`, 855 nM.
As to `COc1ccc(C(C(=O)NC2CCCCC2)N(Cc2cccs2)C(=O)Cc2c[nH]c3ccccc23)cc1` (stereo not drawn), the EC50 is > 15000 nM (inactive).
For `O=S(=O)(Nc1nc2ccccc2s1)c1ccc(Br)s1` the value was 1730 nM; for `Cn1cccc1-c1cc(C(=O)N2CCc3c([nH]c4ccccc34)C2c2ccccn2)[nH]n1` (stereo not drawn), 741 nM.
For `Cc1cc(C)c2ccc(N)nc2c1O` the value was 14100 nM; for `Cc1ccc(C(=O)NC(=S)NNC(=O)CC#N)cc1`, > 15000 nM (inactive); for `Nc1nonc1-n1nnc(C(=O)N/N=C/c2cc(Br)ccc2O)c1CSC1=NCCS1`, 359 nM.
With `COc1ccc(-c2nc(-c3ccncc3)no2)cc1OC` the figure was 7540 nM.
On to `CCOc1cc(/C=C(\C#N)C(=O)NCC2CCCO2)ccc1OCC(N)=O` (stereo not drawn), for which the EC50 is > 16000 nM (inactive).
With `CCN(CC)c1nc(N)c2c(N)nc3c(c2c1C#N)CC(c1ccccc1)O3` (stereo not drawn) the figure was > 16000 nM (inactive).
With `O=C(Nc1nnc(SCc2ccc(Cl)cc2)s1)c1cnccn1` the figure was 1550 nM; with `O=C(NC(Nc1nc2ccc([N+](=O)[O-])cc2s1)(C(F)(F)F)C(F)(F)F)c1ccccc1Cl`, 1040 nM.
With `Cc1ccccc1/C=C1\SC(=S)N(/N=C/c2cc([N+](=O)[O-])ccc2O)C1=O`, the EC50 was 4060 nM.
For `COc1ccc(-[n+]2c(-c3ccccc3)cc(-c3ccc(C)cc3)cc2-c2ccccc2)cc1` the value was > 15000 nM (inactive); for `O=C(CN1CCN(S(=O)(=O)c2ccccc2)CC1)Nc1ccc2c(c1)CCC2`, 10500 nM; for `COc1cnc(-c2ccccn2)nc1NC(C)C`, > 15000 nM (inactive).
With `O=c1c2ccccc2nc(N/N=C/c2c(O)ccc3ccccc23)n1O` the figure was 238 nM; with `O=C(NNC(=O)c1cc(-c2ccncc2)nc2ccccc12)c1ccccc1O`, 2290 nM; with `CCCCN(C(=O)/C=C/c1ccco1)c1c(N)n(Cc2ccccc2)c(=O)[nH]c1=O`, > 15000 nM (inactive).
For `O=C(c1cc2c(s1)CCCCC2)N1CCN(c2ncccn2)CC1` the value was 135 nM; for `Cc1ccc(C2=NNC3(CCOC(C)(C)C3)S2)cc1` (stereo not drawn), 14800 nM.
`COc1ccc(NC(=O)C(=O)NNC(=O)c2ccc(Cl)cc2Cl)cc1`: the EC50 was 888 nM.
Turning to `O=c1nc(/C=C/c2cc([N+](=O)[O-])ccc2Cl)cc(C(F)(F)F)[nH]1`, the concentration for a half-maximal effect (EC50) was 946 nM.
With `CN1CCN(C(c2cccnc2)c2ccc3cccnc3c2O)CC1` (stereo not drawn) the figure was > 16000 nM (inactive); with `CC(=O)c1c(C)nc(-c2cccc([N+](=O)[O-])c2)n1O`, 3290 nM; with `Cc1ccc(-c2nc(-c3cccnc3)no2)c(C)c1`, 10500 nM.
Take `CCCCC(=O)NC(c1ccccc1)c1ccc2cccnc2c1O` (stereo not drawn): the EC50 is 752 nM.
For `COc1cccc2sc(=NC(=O)CS(=O)(=O)c3ccc(Cl)cc3)n(C)c12` the value was 6530 nM; for `Cc1ccc(/C=C2\SC(=S)N(/N=C/c3cc([N+](=O)[O-])ccc3O)C2=O)o1`, 3330 nM; for `Cn1c(/C=C/c2cccc([N+](=O)[O-])c2)c([N+](=O)[O-])c(=O)n(C)c1=O`, 2530 nM.
Consider `COc1ccccc1C(=O)NNC(=S)NC(=O)c1cc(OC)c(OC)c(OC)c1`, for which the EC50 was 9620 nM.
With `Cc1ccc2nc(-c3ccc(NC(=S)NC4CC(C)(C)NC(C)(C)C4)cc3)sc2c1` the figure was 1900 nM; with `O=C(Oc1c(CN2CCOCC2)cc(Cl)c2cccnc12)c1ccccc1Br`, 4120 nM; with `COc1ccccc1N=Nc1ccc(O)c2ncccc12`, 871 nM.
With `CC(C)n1c(N2CCN(C(=O)Nc3ccc(Cl)cc3)CC2)nc2ccccc21` the figure was > 15000 nM (inactive).
For `CCn1nc(-c2ccccc2)nc2c(=O)n(C)c(=O)nc1-2` the value was 883 nM; for `CCOc1cc(/C=N/NC(=O)c2cccnc2)ccc1OCC(N)=O`, > 15000 nM (inactive).
As for `O=C(Cc1ccc(Cl)cc1)NNC(=S)NC(=O)c1cccs1`, the concentration for a half-maximal effect (EC50) is 1570 nM.
With `Oc1cccc2ccc(Nc3ccccn3)nc12` the figure was 2350 nM.
In the case of `Cc1n[nH]c(C)c1CCNCc1ccc(OCC(O)CN2CCCCC2)cc1` (stereo not drawn), the EC50 was > 15000 nM (inactive).
With `CC12CCC(C(=O)N(NC(=O)c3ccccc3O)C1=O)C2(C)C` (stereo not drawn) the figure was 13900 nM; with `O=C(Nc1cccc2ccccc12)c1ccc([N+](=O)[O-])o1`, 726 nM; with `CC(C)c1ccc2oc(-c3ccc(NC(=O)c4ncn[nH]4)cc3)nc2c1`, > 16000 nM (inactive).
With `CCc1cc(-c2n[nH]c(=S)n2-c2ccccc2C)cs1` the figure was 415 nM; with `O=C(Oc1c(Cl)cc(Cl)c2cccnc12)c1ccco1`, 465 nM.
For `CCn1c(C)nc2cc(C(=O)NNC(=S)Nc3ccc(Cl)cc3Cl)ccc21` the value was 990 nM; for `CCOc1cc(C=O)cc(N=Nc2cccc([N+](=O)[O-])c2)c1O`, 639 nM.
Regarding `CCCC(=O)NC(c1ccc(Cl)cc1)c1ccc2cccnc2c1O` (stereo not drawn), the EC50 was 543 nM.
`CC(C)c1noc2ncc(C(=O)c3cc(Cl)cc(Cl)c3O)cc12`: the EC50 is 2910 nM.
For `CC[n+]1c(C=C2C=C(C)OC(C)=C2)sc2ccccc21` the value was 2080 nM; for `COc1ccc(C[C@H]2NC[C@H](O)[C@H]2OC(C)=O)cc1`, 1480 nM; for `Cc1cc(NCCCn2ccnc2)n2ncc(-c3ccc(Cl)cc3)c2n1`, 1310 nM.
In the case of `O=C(/C(=N/N=C/c1ccc(O)c(O)c1O)c1ccccc1)c1ccccc1`, the half-maximal effective concentration (EC50) is 2300 nM.
With `CSc1ncc(Cl)c(C(=O)C(C#N)c2nc3c(C)cc(C)cc3c(=O)[nH]2)n1` (stereo not drawn) the figure was > 16000 nM (inactive).
With `O=C(OCn1ncc(Cl)c(Cl)c1=O)c1cccc(C(F)(F)F)c1` the figure was 2460 nM; with `CC(NC(=O)Nc1ccccc1F)C(C)(C)C` (stereo not drawn), > 16000 nM (inactive).
For `Cc1cc(/C=N/n2c(COc3ccccc3C)nc3ccccc3c2=O)c(O)c([N+](=O)[O-])c1` the value was 1620 nM.
Regarding `Cc1cccc(C(=O)CC(=O)c2cc(Cl)ccc2O)c1`, the EC50 was 2670 nM.
In the case of `O=C(NNC(=S)NC1CCCCC1)c1ccccc1Br`, the EC50 was > 16000 nM (inactive).
With `Cc1ccc(-n2c(-c3ccccc3)c[n+]3c2CCC3)cc1` the figure was 8580 nM.
Take `CC(=O)O/N=C/c1c(N2CCOCC2)n(C)c2ccccc12`: the EC50 is 403 nM.
For `CSc1ccc(C2c3[nH]c4ccccc4c3CCN2C(=O)c2ccnn2C)cc1` (stereo not drawn) the value was 2350 nM; for `Cc1ccc(/C=N/NC(=O)c2c(-c3ccccc3)noc2C)c(O)c1`, 6160 nM.
Regarding `CC(C)(C)c1ccc(C(=O)CC(=O)c2cc(Cl)ccc2O)cc1`, the EC50 was 4770 nM.
`Cc1ccc(C(=O)NCc2ccco2)cc1S(=O)(=O)Nc1cccc(Cl)c1`: the EC50 is > 15000 nM (inactive).
Turning to `Cc1cccc(C(=O)NC(=S)NNC(=O)Cc2ccccc2)c1`, the EC50 is 10600 nM.
For `O=C1C2CCN(CC2)C1Cc1ccc(OCCOc2ccccc2)cc1` (stereo not drawn) the value was 1680 nM; for `CNC1=C(N(C(C)=O)c2ccc(Br)cc2)C(=O)c2ccccc2C1=O`, 190 nM.
